Experiment [1] addresses T1, human Y2 receptor (Homo sapiens, UniProt P49146).
T1 construct: expressed in transfected cells; host or cells: COS-7 (transient)
T1 sequence (P49146 1-381): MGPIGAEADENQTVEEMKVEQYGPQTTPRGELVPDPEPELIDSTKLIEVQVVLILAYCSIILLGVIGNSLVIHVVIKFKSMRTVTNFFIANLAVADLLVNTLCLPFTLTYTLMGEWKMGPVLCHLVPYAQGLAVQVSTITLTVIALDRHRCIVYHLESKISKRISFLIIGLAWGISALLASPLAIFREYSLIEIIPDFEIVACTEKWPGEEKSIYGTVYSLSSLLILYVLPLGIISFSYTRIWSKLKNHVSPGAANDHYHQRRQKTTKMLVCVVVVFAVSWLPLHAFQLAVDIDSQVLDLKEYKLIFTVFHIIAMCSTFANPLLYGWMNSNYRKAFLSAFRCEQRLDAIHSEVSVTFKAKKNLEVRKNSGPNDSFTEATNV
Kind of experiment: ^125I-PYY binding to membranes, cloned human Y2 receptor. To be noted: read-out: Binding Affinity Ki vs. ^125I-PYY, Human Receptor Y2; Table 14; stably transfected 293 cells (compound 1 also COS-7).

The target of experiment [2] is T2, human Y5 receptor (Homo sapiens, UniProt Q15761).
T2 sequence (Q15761 1-445): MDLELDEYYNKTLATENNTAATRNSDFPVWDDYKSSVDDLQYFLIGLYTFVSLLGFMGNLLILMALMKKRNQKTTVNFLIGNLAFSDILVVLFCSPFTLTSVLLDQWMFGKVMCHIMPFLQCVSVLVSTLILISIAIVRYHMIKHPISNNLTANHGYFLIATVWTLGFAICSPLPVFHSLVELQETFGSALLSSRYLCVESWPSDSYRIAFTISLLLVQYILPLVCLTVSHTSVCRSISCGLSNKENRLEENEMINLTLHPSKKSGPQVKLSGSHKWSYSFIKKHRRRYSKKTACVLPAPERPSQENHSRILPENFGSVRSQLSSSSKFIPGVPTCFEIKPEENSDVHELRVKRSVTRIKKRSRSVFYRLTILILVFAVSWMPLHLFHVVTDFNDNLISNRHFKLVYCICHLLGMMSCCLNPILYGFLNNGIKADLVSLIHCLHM
Kind of experiment: Radioligand binding to membranes of cells expressing cloned human Y5 receptor. On the set-up: Ki Values, Human Y5; apparent Kd; pKd; The isolated clone (CG-19) turned out to contain a full length cDNA; The longest open reading frame encodes a 455 amino acid protein. The note with it: read-out: Binding Affinity Ki vs. ^125I-PYY, Human Receptor Y5; Table 14; stably transfected LM(tk-) cells.

Experiment [3] deals with T3, α1a (Homo sapiens, UniProt P35348).
T3 sequence (P35348 1-466): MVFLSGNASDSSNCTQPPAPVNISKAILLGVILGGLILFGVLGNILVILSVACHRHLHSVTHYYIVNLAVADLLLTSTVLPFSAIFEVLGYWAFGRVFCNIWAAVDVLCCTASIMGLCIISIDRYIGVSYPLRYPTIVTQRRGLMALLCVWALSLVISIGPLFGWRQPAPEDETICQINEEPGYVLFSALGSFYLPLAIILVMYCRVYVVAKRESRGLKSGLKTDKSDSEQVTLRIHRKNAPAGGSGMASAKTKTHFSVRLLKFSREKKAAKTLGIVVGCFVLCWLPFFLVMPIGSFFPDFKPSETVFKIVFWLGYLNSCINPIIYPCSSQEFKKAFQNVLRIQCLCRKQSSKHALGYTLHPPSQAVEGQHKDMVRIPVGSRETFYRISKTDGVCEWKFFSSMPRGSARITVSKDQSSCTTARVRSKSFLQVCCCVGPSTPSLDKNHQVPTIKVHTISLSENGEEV
Kind of experiment: Binding at cloned human α1a adrenergic receptor.

The subject of experiment [4] is food intake. Kind of experiment: Food intake in food-deprived rats. It is filed as in vivo, rat. To be noted: 30 mg/kg i.p., after 24h food deprivation.
Description: After receipt, the animals are individually housed for the duration of the study and allowed free access to normal food together with tap water. The animals are maintained in a room with a 12 h light/dark cycle (8:00 a.m. to 8:00 p.m. light) at 24° C. and monitored humidity. After placement into individual cages the rats undergo a 4 day equilibration period, during which they are habituated to their new environment and to eating a powdered or pellet diet NAFAG, Gossau, Switzerland).
At the end of the equilibration period, food is removed from the animals for 24 hours starting at 8:00 a.m. At the end of the fasting period compound or vehicle may be administered to the animals orally or by injection intraperitoneally or intravenously. After 10-60 min. food is returned to the animals and their food intake is monitored at various time periods during the following 24 hour period. The food intake of animals treated with test compound may be calculated as a percentage of the food intake of control animals (i.e., animals treated with vehicle). Alternatively, food intake for each group of animals subjected to a particular experimental condition may be expressed as the mean±S.E.M.
Measurements were performed two hours after administration of the test compound.
In experiment [5] the target is 5HT7 (Homo sapiens, UniProt P34969). Kind of experiment: Binding at cloned human 5HT7 receptor.
The target in experiment [6] is T4, 5HT2 (Homo sapiens, UniProt P28223).
T4 construct: expressed in transfected cells; host or cells: COS-7 (DEAE-dextran); the same paragraph also names the deposited cell line L-NGC-5HT2 (ATCC CRL 10287)
Kind of experiment: Binding at cloned human 5HT2 receptor.
Description: Human 5HT2 Receptor: The coding sequence of the human 5HT2 receptor was obtained from a human brain cortex cDNA library, and cloned into the cloning site of pcEXV-3 eukaryotic expression vector. […] Nonspecific binding was defined by the addition of 10 μM mianserin.

Experiment [7] deals with T5, α2b (Homo sapiens, UniProt P18089).
T5 sequence (P18089 1-450): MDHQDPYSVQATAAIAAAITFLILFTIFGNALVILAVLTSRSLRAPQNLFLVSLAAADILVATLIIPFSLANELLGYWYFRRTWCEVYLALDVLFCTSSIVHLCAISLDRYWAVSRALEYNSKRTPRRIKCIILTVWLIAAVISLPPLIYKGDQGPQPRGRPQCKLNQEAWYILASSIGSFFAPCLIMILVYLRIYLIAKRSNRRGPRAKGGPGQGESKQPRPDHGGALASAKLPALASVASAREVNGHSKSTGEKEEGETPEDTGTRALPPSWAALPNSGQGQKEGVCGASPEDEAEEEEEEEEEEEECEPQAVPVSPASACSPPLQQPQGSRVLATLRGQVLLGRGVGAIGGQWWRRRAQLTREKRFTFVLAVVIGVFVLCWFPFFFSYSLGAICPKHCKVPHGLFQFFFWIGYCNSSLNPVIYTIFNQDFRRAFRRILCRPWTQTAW
Kind of experiment: Binding at cloned human α2b adrenergic receptor.

For experiment [8], the target named is T6, α2c (Homo sapiens, UniProt P18825).
T6 sequence (P18825 1-462): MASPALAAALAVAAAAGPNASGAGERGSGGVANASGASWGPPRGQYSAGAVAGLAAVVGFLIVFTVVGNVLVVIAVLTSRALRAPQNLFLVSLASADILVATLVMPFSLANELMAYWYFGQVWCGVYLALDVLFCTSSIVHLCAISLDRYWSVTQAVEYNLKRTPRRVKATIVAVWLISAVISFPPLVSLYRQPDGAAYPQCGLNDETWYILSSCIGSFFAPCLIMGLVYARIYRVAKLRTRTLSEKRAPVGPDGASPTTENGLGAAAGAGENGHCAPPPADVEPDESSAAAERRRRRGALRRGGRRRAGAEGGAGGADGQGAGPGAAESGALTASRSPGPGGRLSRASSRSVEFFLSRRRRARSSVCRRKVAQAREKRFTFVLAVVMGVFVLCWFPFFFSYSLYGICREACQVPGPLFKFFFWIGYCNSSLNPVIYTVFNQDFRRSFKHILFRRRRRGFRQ
Kind of experiment: Binding at cloned human α2c adrenergic receptor. The note with it: cloned human receptor.

From patent publication US6713265B1 (Synaptic Pharmaceutical Corporation, priority 1999, dated 2004) come the findings set out here.

Molecules are shown by their SMILES.

T4 sequence (P28223 whole entry): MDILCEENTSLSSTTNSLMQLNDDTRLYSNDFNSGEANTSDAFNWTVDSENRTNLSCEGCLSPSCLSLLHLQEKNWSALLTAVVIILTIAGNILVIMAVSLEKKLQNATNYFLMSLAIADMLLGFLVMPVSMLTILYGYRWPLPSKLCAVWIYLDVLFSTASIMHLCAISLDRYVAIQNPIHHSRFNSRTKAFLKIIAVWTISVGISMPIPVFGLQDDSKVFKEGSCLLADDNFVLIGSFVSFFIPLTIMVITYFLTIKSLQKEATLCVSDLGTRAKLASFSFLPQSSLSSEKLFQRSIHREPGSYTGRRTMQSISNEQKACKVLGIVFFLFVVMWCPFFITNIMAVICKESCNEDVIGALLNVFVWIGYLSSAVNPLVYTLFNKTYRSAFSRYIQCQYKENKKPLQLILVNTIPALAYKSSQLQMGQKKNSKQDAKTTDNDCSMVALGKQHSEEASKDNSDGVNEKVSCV
5HT7, sequence (P34969 1-445 isoform P34969-2): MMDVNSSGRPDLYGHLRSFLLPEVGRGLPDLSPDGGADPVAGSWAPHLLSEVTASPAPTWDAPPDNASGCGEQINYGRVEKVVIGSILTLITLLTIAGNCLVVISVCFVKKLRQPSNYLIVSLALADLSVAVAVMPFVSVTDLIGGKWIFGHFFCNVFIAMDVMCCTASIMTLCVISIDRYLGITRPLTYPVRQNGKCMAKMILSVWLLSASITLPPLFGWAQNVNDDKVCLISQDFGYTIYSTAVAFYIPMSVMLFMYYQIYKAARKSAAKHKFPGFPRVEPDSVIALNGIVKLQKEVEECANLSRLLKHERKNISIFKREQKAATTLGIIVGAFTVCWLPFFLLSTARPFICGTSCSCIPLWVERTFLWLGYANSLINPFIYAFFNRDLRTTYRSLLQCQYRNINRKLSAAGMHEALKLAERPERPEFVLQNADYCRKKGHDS

In the case of `Cl.O=S(=O)(NC[C@H]1CC[C@H](CNCC2CCc3ccccc3C2)CC1)c1cccc2ccccc12` (mixture of isomers) [Compound 19], the Ki in experiment [1] is 955 nM; in experiment [2] it was 11 nM. Moreover, the “pKi α1a” value in experiment [3] stood at 7.47. In experiment [4], the “Two-hour food intake of food-deprived rats, percentage of intake compared to control rats, Mean” value was determined as 36%. Further, the “pKi 5HT7” value in experiment [5] worked out at 6.42. Further, in experiment [6], the “pKi 5HT2” value is reported as 6.55. In experiment [7], the “pKi α2b” value is 6.58.
Take `Cl.O=[N+]([O-])c1ccccc1S(=O)(=O)NC[C@H]1CC[C@H](CNCC2CCc3ccccc3C2)CC1` (mixture of isomers) [Compound 20]: the results for the Ki in experiment [1] and in experiment [2] were 7760 nM and 8.3 nM, respectively. Further, the “pKi α2c” value in experiment [8] came to 7.39. Besides, in experiment [3], the “pKi α1a” value turned out to be 7.72. In addition, the “Two-hour food intake of food-deprived rats, percentage of intake compared to control rats, Mean” value in experiment [4] amounted to 35%. Also, in experiment [5], the “pKi 5HT7” value was 6.37. Besides, in experiment [6], the “pKi 5HT2” value turned out to be 5.93. Further, the “pKi α2b” value in experiment [7] is listed as 6.96.
Consider `Cl.Cl.Nc1ccccc1S(=O)(=O)NC[C@H]1CC[C@H](CNCC2CCc3ccccc3C2)CC1` (mixture of isomers) [Compound 22], for which the Ki was 7570 nM in experiment [1] and 11 nM in experiment [2]. The “pKi α2c” value in experiment [8] is on record as 7.15. Further, the “pKi α1a” value in experiment [3] is listed as 7.34. In experiment [4], the “Two-hour food intake of food-deprived rats, percentage of intake compared to control rats, Mean” value is 55%. In addition, in experiment [5], the “pKi 5HT7” value is listed as 6.39. Also, the “pKi 5HT2” value in experiment [6] is reported as 5.99. For the same molecule, the “pKi α2b” value in experiment [7] stood at 6.43.
